“Also recorded” adds a separate entry of the source.

Data set [1] concerns human THP-1 cells. In words: Cytokine release from THP-1 cells into culture medium (multiplex cytokine analysis). Type of data set: cell-based. As to conditions: 24 hours. On the procedure: THP-1 cells, a human cell line derived from monocytes, were treated in vitro with vehicle, the P2Y6 receptor antagonist MRS 2578, or compound 5, singly or in combination. THP-1 cells were seeded in 24 well plates at a density of 4×10^5 cells/well in culture medium for 24 hours. Thereafter, vehicle, compound 5, or MRS 2578 (singly or in combination) were added to the cultures for 24 hours. Subsequently the culture medium was aspirated and subjected to multiplex cytokine analysis. Data are presented as means+/−sem. MRS 2578 has a molecular weight of about 472 and is also described using CAS number 711019-86-2.

The test system of data set [2] is PSAPP mice. In words: Multiplex analysis of circulating plasma cytokine levels. Type of data set: in vivo. How it is done: Inflammatory cytokines were assessed in mouse plasma of both wild type and PS1/APP mice (Alzheimer's mouse model) and the impact of intraperitoneal delivery of the diphosphate derivative of compound 5 on circulating cytokines was assessed. […] 24 hours following the final injection, plasma was collected. Wildtype, age matched littermates and PSAPP mice (>6 months of age) were treated either with vehicle (phosphate buffered saline) or vehicle containing compound.
As part of the study described in Example 16, the levels of numerous cytokines in plasma of mice treated with vehicle or compound 5 were also evaluated. As described in Example 16, treatment was initiated when the mice were approximately 3 months old. PSAPP mice were treated for 100 days with daily injections of 10 μg/kg of compound 5 or vehicle. Following treatment and the fear conditioning task experiment, plasma was taken for multiplex cytokine analysis of circulating cytokine levels in vehicle-treated versus compound-treated PSAPP mice. Cytokine levels are assayed using a multi-plex system where beads are labelled with capture antibody specific for each analyte tested. Each bead set is coupled to a specific capture antibody and is distinguishable from beads coupled to a different capture antibody. Thus, the levels of each analyte can be evaluated and distinguished. […] In FIGS. 17-20, compound 5 is indicated along the x-axis as “compound”.

Data set [3] in a line: Oral bioavailability. As to conditions: in vivo.
The subject of data set [4] is PSAPP mice. In words: Postmortem immunohistochemistry of amyloid beta plaque load in cortex and hippocampus. Type of data set: in vivo. How it is done: Mice were perfused transcardially with 4% paraformaldehyde and 40 μm Coronal sections were collected. Sections were sequentially incubated in 0.3% H2O2 for 10 minutes, blocking solution for 2 hrs, blocking solution containing the primary antibody (rabbit anti-beta1-42; rabbit anti-beta1-40, from Chemicon International and rat anti-CD45) for 48 hours at 4° C., and blocking solution containing biotinylated antibody or fluorescently-labeled antibody for 2 hours at room temperature. Sections were visualized in a bright field microscope or a confocal microscope, and the optical density was obtained using MetaMorph software.
To generate these graphs showing plaque load, mice were euthanized, brain sections cut and antibodies directed against Aβ 42 were used to disclose Aβ plaques. Images were acquired digitally and an algorithm was applied to threshold the image so that plaques were isolated from the background. The algorithm then calculated the percent area of the field of view occupied by the plaques.
Brain samples were collected for Abeta analysis with immunostaining. Brains samples were collected after transcardial perfusion with phosphate buffer and 4% paraformaldehyde. Floating brain sections (40 micron) were collected using a microtome. Immunostaining for Aβ40 and Aβ42 were performed according to previously established protocol. Images with DAB staining were collected with brightfield microscopy and analyzed with ImageJ Macro. All data analysis and statistics were performed in GraphPad Prism 6.0.

In data set [5] the test system is PSAPP mice. As to the kind of experiment: Contextual fear conditioning test (freezing %). Format: in vivo. How it is done: On day one, animals were trained in a fear conditioning apparatus for a total of 7 minutes with a two-pairing paradigm of cue and mild foot shock (a 30-s acoustic-conditioned stimulus, 80 dB; a 2-s shock stimulus, 0.5 mA). To evaluate contextual fear learning, the animals were returned to the training context 24 hours post-training, and freezing behavior was scored for 5 minutes. Freezing behavior was monitored by MotorMonitor (Hamilton Kinder) and scored every 5 seconds.
This represents a decrease in the cognitive impairment observed in the untreated mice.

Data set [6] is described as follows: Cmax at the effective dose. The settings on record: mouse, in vivo; dose 10 ug/kg.
Data set [7] is described as follows: Half-life in human whole blood. Type of data set: in vitro ADME.

In general, bioavailability refers to dose-corrected exposure relative to a reference, in per cent. A lower bioavailability goes with poor availability. By half-life is commonly meant how long it takes for the measured level to halve. `O=C1C=CC([C@@H]2O[C@H](CO)C(O)C2O)C(=O)N1Cc1noc2ccccc12` (stereo partly shown) [compound 5]: the “release of cytokines from THP-1 cells” value in data set [1] (10 nM) is given as “reduced”. In addition, the “release of IL-7 from human THP-1 cells” value in data set [1] (compound 5 10 nM alone, FIG. 26) is on record as “decreased”. The “plasma levels of IL-4, IL-10, and IL-12 (IL-12(p70))” value in data set [2] (Example 17: 10 μg/kg daily 100 days from approx. 3 months old, FIG. 17) is recorded as “statistically significant reduction”. Further, in data set [2] (Example 17: 10 μg/kg daily 100 days, FIG. 17), the “plasma level of p40 subunit alone (IL-12(p40))” value is on record as “does not reflect a change”. The “average plasma levels of IFN-r, IL-1β, IL-2, IL-3, IL-5, IL-6, IL-7, IL-9, IL-13, IL-17, LIF, MIP-1α, and MIP-1β” value in data set [2] (Example 17: 10 μg/kg daily 100 days, FIGS. 17-20) is “reduced”. Besides, the “levels of M-CSF, MIP-2, Eotaxin, GM-CSF, G-CSF, LIX, MCP-1, IL-1α and IP-10” value in data set [2] (Example 17: 10 μg/kg daily 100 days, FIGS. 18-20) is “no or substantially no change”. In data set [2] (Example 18: 10 μg/kg i.p. daily 100 days from approx. 3 months old, FIG. 21), the “plasma levels of IL-12 (IL-12(p70)), IL-13, IL-17, IL-10, IL-4, MIP-1a, MIP-1b, and IL-2” value is reported as “statistically significant reduction”. The “plasma levels of IL-12 (IL-12(p70)), IL-13, IL-17, IL-10, MIP-1a, MIP-1b, and TNFα” value in data set [2] (Example 19: 10 μg/kg i.p. daily 7 days from approx. 6 months old (symptomatic), FIG. 23) was “statistically significant reduction”. Besides, in data set [3], the bioavailability amounted to 72.2%. In data set [4] (10 μg/kg i.p. once per day for 7 days, PS1/APP mice 26 weeks), the “size distribution of remaining plaques” value is listed as “significantly reduced”. In data set [4] (10 μg/kg i.p. once per day for 7 days, PS1/APP mice 26 weeks, cortex, FIG. 13A), the Aβ40 plaque burden entry is listed as “significantly reduced”. In data set [4] (10 μg/kg i.p. once per day for 7 days, PS1/APP mice 26 weeks, cortex, FIG. 13B), the Aβ42 plaque burden result was “significantly reduced”. Also, the “plaque burden vs vehicle” value in data set [4] (Example 16: 10 μg/kg i.p. daily 100 days from approx. 3 months old, FIG. 16) is “decrease; also recorded: reduced”. Further, in data set [4] (Example 18: 10 μg/kg i.p. daily 100 days, FIG. 22A, p<0.01), the “amyloid beta accumulation (plaque load) in the cortex” value was “decreased”. Besides, in data set [4] (Example 18: 10 μg/kg i.p. daily 100 days, FIG. 22B, p<0.02), the “amyloid beta accumulation (plaque load) in the hippocampus” value was “decreased”. Also, the “amyloid beta accumulation in the hippocampus (using Aβ42)” value in data set [4] (Example 19: 10 μg/kg i.p. daily 7 days from approx. 6 months old, FIG. 24A lower panel) was “decreased”. Also, the “amyloid beta accumulation in the cortex (using Aβ40)” value in data set [4] (Example 19: 10 μg/kg i.p. daily 7 days from approx. 6 months old, FIG. 24A upper panel) is recorded as “decreased”. Also, in data set [4] (Example 19: 10 μg/kg i.p. daily 7 days, FIG. 24B), the plaque size result is “decrease”. The “freezing time (contextual fear memory) vs vehicle” value in data set [5] (Example 16: 10 μg/kg i.p. daily 100 days from approx. 3 months old (pre-symptomatic), FIG. 15) is “statistically significant increase”; in data set [5] (Example 18: 10 μg/kg i.p. daily 100 days from approx. 3 months old, FIG. 22C, p<0.02) it was “statistically significant increase”. Further, the Cmax in data set [6] was 13 nM. For the same compound, the half-life in data set [7] was 16.4 h.

Source of the values: patent publication US11124536B2, “Uridine nucleoside derivatives, compositions and methods of use” (Tufts University, priority 2013, dated 2021).
